Measurements: PubChem BioAssay AID651852 (Vanderbilt Specialized Chemistry Center, 2012)
Activity calls are given as the source filed them. The rule behind the calls is not given here.

Biological target: Metabotropic glutamate receptor 5 (Rattus norvegicus) (UniProt P31424)
Experiment: PubChem AID 651852
Conditions: HEK293 rat mGluR5 membranes, radioligand competition binding

Chain of Metabotropic glutamate receptor 5 (Rattus norvegicus) (P31424 whole entry, looked up): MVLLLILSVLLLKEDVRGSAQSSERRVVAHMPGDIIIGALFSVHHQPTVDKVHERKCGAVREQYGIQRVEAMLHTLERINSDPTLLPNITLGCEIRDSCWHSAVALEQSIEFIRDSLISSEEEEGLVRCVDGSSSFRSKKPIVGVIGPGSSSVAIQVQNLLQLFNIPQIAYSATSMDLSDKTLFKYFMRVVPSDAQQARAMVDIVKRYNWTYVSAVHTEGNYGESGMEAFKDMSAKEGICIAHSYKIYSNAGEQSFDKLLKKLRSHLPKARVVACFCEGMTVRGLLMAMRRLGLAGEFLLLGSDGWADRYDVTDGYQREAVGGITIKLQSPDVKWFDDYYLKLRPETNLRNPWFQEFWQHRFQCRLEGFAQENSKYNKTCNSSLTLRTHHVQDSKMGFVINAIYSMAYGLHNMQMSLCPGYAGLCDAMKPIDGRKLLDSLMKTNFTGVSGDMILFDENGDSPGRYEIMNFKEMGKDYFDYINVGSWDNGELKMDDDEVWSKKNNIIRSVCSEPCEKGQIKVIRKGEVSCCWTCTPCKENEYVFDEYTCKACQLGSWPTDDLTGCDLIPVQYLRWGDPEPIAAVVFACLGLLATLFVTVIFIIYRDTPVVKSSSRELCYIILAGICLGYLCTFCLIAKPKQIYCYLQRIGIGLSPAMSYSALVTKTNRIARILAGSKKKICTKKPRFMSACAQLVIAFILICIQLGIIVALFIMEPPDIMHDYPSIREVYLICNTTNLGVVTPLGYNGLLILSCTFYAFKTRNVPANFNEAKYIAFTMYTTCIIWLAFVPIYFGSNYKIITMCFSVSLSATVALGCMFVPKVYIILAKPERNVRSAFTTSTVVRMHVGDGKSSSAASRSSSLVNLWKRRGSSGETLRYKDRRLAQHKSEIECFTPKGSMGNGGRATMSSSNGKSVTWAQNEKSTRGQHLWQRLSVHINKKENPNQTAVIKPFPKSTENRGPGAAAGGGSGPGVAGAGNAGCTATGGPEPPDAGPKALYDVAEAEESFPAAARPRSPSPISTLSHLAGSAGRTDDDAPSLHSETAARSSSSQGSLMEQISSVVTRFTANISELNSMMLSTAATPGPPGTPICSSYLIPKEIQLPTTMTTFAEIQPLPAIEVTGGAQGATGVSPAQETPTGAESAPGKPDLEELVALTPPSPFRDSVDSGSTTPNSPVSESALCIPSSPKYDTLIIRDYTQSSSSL

SMILES | IC50
CS(=O)(=O)N(CC(=O)NCC1CC1)c1cc(C(F)(F)F)ccc1Cl | > 30 µM (inactive)
O=S(=O)(c1ccc(F)cc1)N1CCCC(c2nc(-c3ccc(F)cc3)no2)C1 (stereo not drawn) | > 30 µM (inactive)
O=S(=O)(c1ccc(C#Cc2cccc(F)c2)cc1)N1CCOCC1 | > 30 µM (inactive)
